Data as given in patent US20100004166A1, “Endothelin and Endothelin Receptor Agonists in the Treatment of Metabolic Diseases” (priority 2007, published 2010).
Entries after “also recorded” stand apart in the source; their conditions may differ. Where a SMILES comes first, the peptide text is derived from it. Bridges are numbered along the chain shown (N, C = ends). Where no end group is shown, it is not given here.

Test system: not listed separately
Test: Body weight and body fat in diet induced obese (DIO) mice, continuous s.c. osmotic pump infusion
Assay type: in vivo
Conditions: DIO mice on high fat diet, 300 nmol/kg/d, infused continuously 2-4 weeks (28 days); listed as adenoregulin
Protocol: Materials & Methods: Diet induced obese (DIO) mice were employed. Obesity was induced by feeding a pelleted high-fat diet (58% of calories, #D12331, Research Diets, New Brunswick, N.J.) starting at 4 wk of age (20) for 6 wk (4 wk for the long-term study) prior to treatment. The mice then remained on this diet in powdered form throughout the treatment period unless otherwise noted. All animals were housed under a 12 hr:12 hr light-dark cycle at 21-23° C., and allowed ad libitum access to food pre- and post-treatment. […] (20 nmol/kg/d), or adenoregulin [SEQ ID NO: 33] (300 nmol/kg/d) were administered to DIO mice by Alzet® s.c. osmotic pumps. Mice were fed pelleted high-fat diet, and body weights and food intake were recorded weekly.
Body weight (BWt), at each time point, reflects the effect of test sample on BWt when expressed as % change relative to vehicle treated. For a treatment group:
% BWt loss=100*[(mean BWt change vehicle treated)−(mean BWt change treated)/mean BWt at day 0]
[…]
(§1) Significant test sample effects were identified by ANOVA (p<0.05). Where a significant difference exists, test means were compared to the control mean using Dunnett's test. One-way ANOVA with Dunnett's post test was performed using GraphPad Prism® version 3.01 for Windows, GraphPad Software, San Diego Calif.

| Molecule | body weight |
| --- | --- |
| GLWSKIKEVGKEAAKAAAKAAGKAALGAVSEAV-NH2 [SEQ ID NO 33] | sustained weight reducing effect; also recorded: reduction of body weight |

Same assay, conditions: DIO mice on high fat diet, 300 nmol/kg/d, vs vehicle on high-fat or low-fat diet; listed as adenoregulin

| Molecule | body fat |
| --- | --- |
| GLWSKIKEVGKEAAKAAAKAAGKAALGAVSEAV-NH2 [SEQ ID NO 33] | reduction in body fat; also recorded: reduction of body fat |

Same assay, conditions: DIO mice, 20 nmol/kg/d continuously infused

| Molecule | sickness behavior |
| --- | --- |
| CC[C@H](C)[C@H](NC(=O)[C@H](CC(=O)O)NC(=O)[C@H](CC(C)C)NC(=O)[C@H](Cc1cnc[nH]1)NC(=O)[C@@H]1CSSC[C@H](N)C(=O)N[C@@H](CO)C(=O)N[C@H]2CSSC[C@H](NC(=O)[C@H](CCC(=O)O)NC(=O)[C@H](CCCCN)NC(=O)[C@H](CC(=O)O)NC(=O)[C@H](CCSC)NC(=O)[C@H](CC(C)C)NC(=O)[C@H](CO)NC(=O)[C@H](CO)NC2=O)C(=O)N[C@@H](C(C)C)C(=O)N[C@@H](Cc2ccc(O)cc2)C(=O)N[C@@H](Cc2ccccc2)C(=O)N1)C(=O)N[C@H](C(=O)N[C@@H](Cc1c[nH]c2ccccc12)C(=O)O)[C@@H](C)CC [ET-1, reference compound] | without observable sickness behavior |

Molecular target: T1, ETA (Homo sapiens, UniProt P25101)
T1 sequence (P25101 21-427): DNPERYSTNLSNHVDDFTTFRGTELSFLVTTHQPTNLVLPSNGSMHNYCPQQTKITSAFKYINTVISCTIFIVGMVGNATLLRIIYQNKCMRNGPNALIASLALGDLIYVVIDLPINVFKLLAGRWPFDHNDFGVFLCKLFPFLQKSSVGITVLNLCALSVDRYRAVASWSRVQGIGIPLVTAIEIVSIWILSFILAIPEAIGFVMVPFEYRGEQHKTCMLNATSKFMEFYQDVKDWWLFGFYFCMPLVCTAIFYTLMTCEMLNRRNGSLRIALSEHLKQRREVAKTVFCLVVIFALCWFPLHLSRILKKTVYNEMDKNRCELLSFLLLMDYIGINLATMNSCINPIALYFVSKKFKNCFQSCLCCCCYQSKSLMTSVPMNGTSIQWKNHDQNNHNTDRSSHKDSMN
Test: not given
Conditions: read-out: affinity for ETA; cited from earlier work

| Molecule | Kd [nM] |
| --- | --- |
| CC[C@H](C)[C@H](NC(=O)[C@H](CC(=O)O)NC(=O)[C@H](CC(C)C)NC(=O)[C@H](Cc1c[nH]cn1)NC(=O)[C@@H]1CSSC[C@H](N)C(=O)N[C@@H]([C@@H](C)O)C(=O)N[C@H]2CSSC[C@H](NC(=O)[C@H](CCC(=O)O)NC(=O)[C@H](CCCCN)NC(=O)[C@H](CC(=O)O)NC(=O)[C@H](CCCCN)NC(=O)[C@H](Cc3ccc(O)cc3)NC(=O)[C@H]([C@@H](C)O)NC(=O)[C@H](Cc3ccccc3)NC2=O)C(=O)N[C@@H](C(C)C)C(=O)N[C@@H](Cc2ccc(O)cc2)C(=O)N[C@@H](Cc2ccc(O)cc2)C(=O)N1)C(=O)N[C@H](C(=O)N[C@@H](Cc1c[nH]c2ccccc12)C(=O)O)[C@@H](C)CC [ET-3, reference compound] | 6.5 |

Test system: not listed separately
Test: Reduction of food intake in fasted mice after i.p. injection of peptide
Assay type: in vivo, NIH/Swiss mice
Conditions: fasted mice, i.p.
Text: In yet another embodiment, the ET receptor agonist is adenoregulin. See, e.g., Donly et al., Proc. Natl. Acad. Sci. USA 89:10960-963 (1992); Amiche et al., Biochem. Biophys. Res. Comm. 191:983-90 (1993). Known sequences for adenoregulin include Genbank sequences X70278 and X72387. Originally isolated from the skin of the frog Phyllomedusa bicolor, adenoregulin belongs to the family of dermaseptins, a family of antimicrobial peptides. See, e.g., Amiche et al., J. Biol. Chem. 269:17847-52 (1994); Zhou et al., Biotechnol. Lett. 27:725-30 (2005).
Materials & Methods: NIH/Swiss mice were fasted approximately 17 hours prior to initiation of the experiment. Peptides were injected intraperitoneally (i.p.) at time zero using doses as indicated. All mice received an intraperitoneal injection (200 μl) of either vehicle or compounds at doses indicated and were immediately presented with a pre-weighed food pellet. The food pellet was weighed at 30-minute, 1-hr, and 2-hr intervals after presentation to determine the amount of food eaten. Each point reflects n=4 for mice receiving an endothelin or endothelin agonist or n=3 for mice receiving vehicle.
Food intake values reflect, at each time point, effect of test sample on food intake is expressed as % change relative to vehicle using the formula provided below.
% basal=−100*[1−(food intake of treatment group/food intake of vehicle group)].
as §1, with “Diego,” for “Diego”, “Calif. USA.” for “Calif.”

| Molecule | observable negative effects |
| --- | --- |
| CC[C@H](C)[C@H](NC(=O)[C@H](CC(=O)O)NC(=O)[C@H](CC(C)C)NC(=O)[C@H](Cc1cnc[nH]1)NC(=O)[C@@H]1CSSC[C@H](N)C(=O)N[C@@H](CO)C(=O)N[C@H]2CSSC[C@H](NC(=O)[C@H](CCC(=O)O)NC(=O)[C@H](CCCCN)NC(=O)[C@H](CC(=O)O)NC(=O)[C@H](CCSC)NC(=O)[C@H](CC(C)C)NC(=O)[C@H](CO)NC(=O)[C@H](CO)NC2=O)C(=O)N[C@@H](C(C)C)C(=O)N[C@@H](Cc2ccc(O)cc2)C(=O)N[C@@H](Cc2ccccc2)C(=O)N1)C(=O)N[C@H](C(=O)N[C@@H](Cc1c[nH]c2ccccc12)C(=O)O)[C@@H](C)CC [ET-1, reference compound] | without observable negative effects |
| CC[C@H](C)[C@H](NC(=O)[C@H](CC(=O)O)NC(=O)[C@H](CC(C)C)NC(=O)[C@H](Cc1cnc[nH]1)NC(=O)[C@@H]1CSSC[C@H](N)C(=O)N[C@@H](CO)C(=O)N[C@H]2CSSC[C@H](NC(=O)[C@H](CCC(=O)O)NC(=O)[C@H](CCCCN)NC(=O)[C@H](CC(=O)O)NC(=O)[C@H](CC(C)C)NC(=O)[C@H](Cc3c[nH]c4ccccc34)NC(=O)[C@H](CO)NC(=O)[C@H](CO)NC2=O)C(=O)N[C@@H](C(C)C)C(=O)N[C@@H](Cc2ccc(O)cc2)C(=O)N[C@@H](Cc2ccccc2)C(=O)N1)C(=O)N[C@H](C(=O)N[C@@H](Cc1c[nH]c2ccccc12)C(=O)O)[C@@H](C)CC [ET-2, reference compound] (H-CSCSSWLDKECVYFCHLDIIW-OH; disulfide 1-15, 3-11) | without observable negative effects |
| CC[C@H](C)[C@H](NC(=O)[C@H](CC(=O)O)NC(=O)[C@H](CC(C)C)NC(=O)[C@H](Cc1c[nH]cn1)NC(=O)[C@@H]1CSSC[C@H](N)C(=O)N[C@@H]([C@@H](C)O)C(=O)N[C@H]2CSSC[C@H](NC(=O)[C@H](CCC(=O)O)NC(=O)[C@H](CCCCN)NC(=O)[C@H](CC(=O)O)NC(=O)[C@H](CCCCN)NC(=O)[C@H](Cc3ccc(O)cc3)NC(=O)[C@H]([C@@H](C)O)NC(=O)[C@H](Cc3ccccc3)NC2=O)C(=O)N[C@@H](C(C)C)C(=O)N[C@@H](Cc2ccc(O)cc2)C(=O)N[C@@H](Cc2ccc(O)cc2)C(=O)N1)C(=O)N[C@H](C(=O)N[C@@H](Cc1c[nH]c2ccccc12)C(=O)O)[C@@H](C)CC [ET-3, reference compound] | without observable negative effects |

Same assay, conditions: fasted mice, i.p., 30 minutes

| Molecule | food intake at 30 minutes |
| --- | --- |
| N-Succinyl-[Glu^9, Ala^11,15]-Endothelin 1 fragment 8-21 [IRL1620, reference compound] | reduced food intake |

Same assay, conditions: fasted mice, i.p., 60 minutes

| Molecule | food intake at 60 minutes |
| --- | --- |
| N-Succinyl-[Glu^9, Ala^11,15]-Endothelin 1 fragment 8-21 [IRL1620, reference compound] | reduced food intake |

Same assay, conditions: fasted mice, i.p., 120 minutes

| Molecule | food intake at 120 minutes |
| --- | --- |
| N-Succinyl-[Glu^9, Ala^11,15]-Endothelin 1 fragment 8-21 [IRL1620, reference compound] | no effect |

Same assay, conditions: fasted mice, peripheral (i.p.) administration, all time points examined (30, 60, 120 min)

| Molecule | reduction in food intake |
| --- | --- |
| c(CTCNDMTDEECLNFCHQDVIW)-OH [Sarafotoxin S6c, reference compound] | dose-dependent reduction in food intake |

Same assay, conditions: food intake (FI) at 120 min; dose not given

| Molecule | % Inhibition of FI at 120 mi [%] |
| --- | --- |
| 33 (GLWSKIKEVGKEAAKAAAKAAGKAALGAVSEAV-NH2) [compound 33] | 77.6 |
| 35 (GLWSKIKEVGKEAAKAAAKAAGKAALGAVSEA-NH2) [compound 35] | 28.9 |
| 36 (GLWSKIKEVGKEAAKAAAKAAGKAALGAVSEAF-NH2) [compound 36] | 92.0 |
| 37 (GLWSKIKEVGKEAAKAAAKAAGKAALGAVSEAL-NH2) [compound 37] | 79.0 |
| 38 (GLWSKIKEVGKEAAKAAAKAAGKAALGAVSEAI-NH2) [compound 38] | 78.0 |
| 39 (GLWSKIKEVGKEAAKAAAKAAGKAALGAVSEAY-NH2) [compound 39] | 61.0 |
| 40 (GLWSKIKEVGKEAAKAAAKAAGKAALGAVSEAW-NH2) [compound 40] | 61.0 |
| 41 (GLWSKIKEVGKEAAKAAAKAAGKAALGAVSEAA-NH2) [compound 41] | 54.0 |
| 42 (GLWSKIKEVGKEAAKAAAKAAGKAALGAVSEAK-NH2) [compound 42] | 48.0 |
| 43 (GLWSKIKEVGKEAAKAAAKAAGKAALGAVSEAP-NH2) [compound 43] | 37.0 |
| 44 (GLWSKIKEVGKEAAKAAAKAAGKAALGAVSEAR-NH2) [compound 44] | 34.0 |
| 45 (GLWSKIKEVGKEAAKAAAKAAGKAALGAVSEAH-NH2) [compound 45] | 23.0 |
| 46 (GLWSKIKEVGKEAAKAAAKAAGKAALGAVSEA-NH2) [compound 46] | 17.0 |
| 47 (GLWSKIKEVGKEAAKAAAKAAGKAALGAVSEAVGEQ-OH) [compound 47] | 50.0 |
| 49 (GLWSKIKEVGKEAAKAAAKAAGKAALGAVSEA-NH2) [compound 49] | 13.5 |
| 50 (GLWSAIKEVGKEAAKAAAKAAGKAALGAVSEAV-NH2) [compound 50] | 22.3 |
| 51 (GLASKIKEVGKEAAKAAAKAAGKAALGAVSEAV-NH2) [compound 51] | 25.8 |
| 52 (ALWSKIKEVGKEAAKAAAKAAGKAALGAVSEAV-NH2) [compound 52] | 32.3 |
| 53 (GLWSKIKEVGKEAAKAAAKAAGKAALGAASEAV-NH2) [compound 53] | 33.6 |
| 54 (GAWSKIKEVGKEAAKAAAKAAGKAALGAVSEAV-NH2) [compound 54] | 37.3 |
| 55 (GLWSKIKEVGKEAAKAAAKAAGKAALGAVSEAA-NH2) [compound 55] | 54.0 |
| 56 (GLWAKIKEVGKEAAKAAAKAAGKAALGAVSEAV-NH2) [compound 56] | 71.7 |
| 57 (GLWSKIKEVGKEAAKAAAKAAGKAALGAVAEAV-NH2) [compound 57] | 74.8 |
| 58 (GLWSKIKEVGKEAAKAAAKAAGKAALGAVSAAV-NH2) [compound 58] | 78.9 |
| 59 (ALWKTMLKKLGTMALHAGKAALGAAADTISQGTQ-OH) [compound 59] | 58.0 |
| 60 (ALWKTLLKKVGKVAGKAVLNAVTNMANQNEQ; not fully specified (C-terminus); printed as ALWKTLLKKVGKVAGKAVLNAVTNMANQNEQ-OH) [compound 60] | 53.0 |
| 61 (ALWMTLLKKVLKAAAKALNAVLVGANA-OH) [compound 61] | 35.0 |
| 62 (ALWKTLLKKVLKA-NH2) [compound 62] | 28.2 |
| 63 (GMWSKIKNAGKAAAKASKKAAGKAALGAVSEALGEQ-OH) [compound 63] | 50.0 |
| 64 (GMWGSLLKGVATVVKHVLPHALSSQQS-OH) [compound 64] | 22.0 |

Same assay, conditions: rodents; doses estimated to be less than those exerting antibiotic effects

| Molecule | food intake |
| --- | --- |
| GLWSKIKEVGKEAAKAAAKAAGKAALGAVSEAV-NH2 [SEQ ID NO 33] | inhibited food intake |
